Entries after “also recorded” stand apart in the source; their conditions may differ. Bridge positions count the residues as written; N and C are the ends. Ends that are not written are not given here. Peptide text beside a SMILES is read from it.
Experiments:
AgrC-I receptor = AgrC-I receptor (Staphylococcus epidermidis, UniProt Q5HMY3); assay: cell-based; assay type: cell-based, S. epidermidis; conditions: for Activity toward Group-I at lower concentration, in words: single concentration 100 nM (or 1 μM); for Mode/strength of activity toward AgrC-I (Group I), in words: dose response
Procedure: The initial set of 14 analogs (listed in Table 1) was synthesized using solid-phase peptide chemistry and purified to homogeneity using previously established HPLC methods (59). Each analog was tested for its ability to modulate the activity of the AgrC-I receptor using a wild-type S. epidermidis Group-I fluorescence reporter strain. This strain contained a reporter plasmid encoding a gfp gene fused to the P3 promoter found upstream of RNAIII (36).
(§1) Biological reagents, strains, and general methods. All standard reagents were purchased from commercial sources and used according to enclosed instructions. The S. epidermidis fluorescence reporter strains AH3408 (Group-I), AH3567 (Group-II), and AH3409 (Group-III) were cultured in Tryptic Soy Broth (TSB, from Sigma) augmented with 10 μg/mL of erythromycin (36). The S. epidermidis wild-type strain RP62A (Group-I) was cultured in TSB (from Sigma or EMD Millipore). The S. aureus fluorescence reporter strains AH1677 (Group-I), AH430 (Group-II), AH1747 (Group-III), and AH1872 (Group-IV) were cultured in Brain Heart Infusion (BHI, from Teknova) augmented with 10 μg/mL of chloramphenicol (65). All cultures were grown at 37° C. with shaking (200 rpm) unless noted otherwise. Absorbance and fluorescence measurements were obtained using a Biotek Synergy 2 microplate reader operating Gen5 data analysis software. IC50 values and EC50 values were determined from sigmoidal curve fits using GraphPad Prism software (v. 6.0).
(§2) Fluorescence reporter assay protocol. […] Each peptide solution was tested in triplicate. […] Plates were then incubated at 37° C. for 24 h. Fluorescence (EX 500 nm/EM 540 nm) and OD600 of each well was measured using a plate reader, and the fluorescence values were normalized to the DMSO control.
(§3) The remaining steps of the fluorescence assay were the same as above.

AgrC-III = conditions: for Activity toward Group-III at lower concentration, in words: single concentration 100 nM (or 1 μM)
Description: (§4) However, the biological significance of this agr interference remains unclear, although it has been hypothesized to potentially play a role in competition between different groups in a mixed bacteria milieu (18). […] To this end, the AIP analogs discussed above were screened in GFP reporter strains of Groups-II and -III S. epidermidis to complement the Group-I S. epidermidis data in Tables 1 and 2 (see Methods; FIGS. 7A and 7B).
as §1, §2, §3

AgrC-II = conditions: for Activity toward Group-II at lower concentration, in words: single concentration 100 nM (or 1 μM)
Description: as §4, §1, §2, §3

[1] = test system: agr system of S. aureus Group-III; assay: Fluorescence (GFP) reporter strain assay, S. aureus Group-III; assay type: cell-based; conditions: 100 nM unless noted
Description: (§5) Similar to the cross-group inhibition observed between different agr groups of the same species, this cross-species inhibitory effect has no known biological role, but is hypothesized to provide a competitive advantage on a host (18, 46). Thus, AIP analogs described herein were examined to identify potential species-specific inhibitors that target either S. epidermidis Group-I or S. aureus Groups-I-IV.
as §1, with “The S. epidermidis wild-type strain RP62A (Group-I) was cultured in TSB (from Sigma or EMD Millipore).” left out, “All cultures were grown at 37° C. with shaking (200 rpm) unless noted otherwise.” left out
(§6) Fluorescence reporter assay protocol. […]
as §3

[2] = test system: AgrC I-IV receptors in S. aureus Groups-I-IV; assay: Fluorescence (GFP) reporter strain assays, S. aureus Groups-I-IV; assay type: cell-based; conditions: 100 nM unless noted
Description: as §5
as §1, with “The S. epidermidis wild-type strain RP62A (Group-I) was cultured in TSB (from Sigma or EMD Millipore).” left out, “All cultures were grown at 37° C. with shaking (200 rpm) unless noted otherwise.” left out
as §6, §3

[3] = test system: S. epidermidis Group-I RP62A biofilm; conditions: 10 μM, 24 h
Procedure: as §1
Crystal violet biofilm assay protocol. […] Each solution was tested in triplicate.

[4] = dose response antagonism assay, FIGS. 3A/3B

AgrC-I receptor, sequence (Q5HMY3 entry or part of it): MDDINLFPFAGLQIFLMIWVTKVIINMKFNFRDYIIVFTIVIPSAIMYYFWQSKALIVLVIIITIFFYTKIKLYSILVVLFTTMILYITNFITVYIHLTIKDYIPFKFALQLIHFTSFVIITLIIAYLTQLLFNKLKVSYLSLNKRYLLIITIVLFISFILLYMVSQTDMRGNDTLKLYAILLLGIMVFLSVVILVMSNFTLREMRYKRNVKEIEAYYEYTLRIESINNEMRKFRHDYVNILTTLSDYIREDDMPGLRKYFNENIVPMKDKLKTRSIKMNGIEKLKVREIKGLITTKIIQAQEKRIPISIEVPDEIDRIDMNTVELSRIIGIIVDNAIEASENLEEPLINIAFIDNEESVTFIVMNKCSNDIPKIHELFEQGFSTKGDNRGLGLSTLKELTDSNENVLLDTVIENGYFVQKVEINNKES

Row | Compound | Activity toward Group-I at lower concentration, in words (AgrC-I receptor) | Activity toward Group-III at lower concentration, in words (AgrC-III) | Activity toward Group-II at lower concentration, in words (AgrC-II) | Inhibitory activity in S. aureus Group-III, in words [1] | Mode/strength of activity toward AgrC-I (Group I), in words (AgrC-I receptor) | inhibition at 10 µM (AgrC-I receptor; read-out: Inhibition of AgrC-I (inhibiting to ~%)) [%] | Activity against Group-III, in words (AgrC-III; single concentration 10 μM) | Effect on agr activity in S. aureus Groups-I-IV, in words [2] | IC50 against AgrC-III, in words (AgrC-III; [4]) | IC50 against AgrC-II, in words (AgrC-II; [4]) | Effect on biofilm growth, in words [3] | EC50 in AgrC-I (AgrC-I receptor; activation dose response in the presence of 50 nM S. epidermidis AIP-II) | IC50 in AgrC-I (AgrC-I receptor; antagonism dose response, peptide alone, Group-I GFP reporter strain, 24 h)
1 | CC(C)C[C@@H]1NC(=O)[C@H](Cc2ccc(O)cc2)NC(=O)[C@H](CC(N)=O)NC(=O)[C@H](CO)NC(=O)[C@@H](NC(=O)[C@@H]2CCCN2C(=O)[C@H](CC(N)=O)NC(=O)[C@H](Cc2ccc(O)cc2)NC(=O)[C@@H](N)CCCCN)CSC1=O [AIP-II 9aa, K-Y-N-P-(C-S-N-Y-L)] (H-KYNPCSNYL; thioester 5-C) | inhibited; also recorded: largely an inhibitor specific to S. epidermidis Group-I | inactive | highly active agonist | weak inhibitory activity |  |  |  |  |  |  |  |  | 
2 | CC(C)C[C@@H]1NC(=O)[C@H](Cc2ccc(O)cc2)NC(=O)[C@H](CC(N)=O)NC(=O)[C@H](CO)NC(=O)[C@@H](NC(=O)[C@@H]2CCCN2C(=O)[C@H](CC(N)=O)NC(=O)[C@@H](N)Cc2ccc(O)cc2)CSC1=O [AIP-II 8aa, Y-N-P-(C-S-N-Y-L)] (H-YNPCSNYL; thioester 4-C) | remained active; also recorded: selectively inhibited |  | inhibitory activity against Group-II decreased |  | potency similar to the parent AIP-II | ~75 | inactive | without significantly affecting agr activity |  |  |  |  | 
3 | C[C@H](N)C(=O)N[C@@H](CO)C(=O)N[C@@H](C)C(=O)N[C@H]1CSC(=O)[C@H](Cc2ccccc2)NC(=O)[C@H](Cc2ccc(O)cc2)NC(=O)[C@H](C)NC(=O)[C@H](CO)NC1=O [AIP-I D1AS6AV3AA5S, A-S-A-(C-S-A-Y-F)] (H-ASACSAYF; thioester 4-C) |  | strongly inhibited | strongly inhibited |  | analogous potency as the parent triple mutant |  |  |  | subnanomolar to low nanomolar range | subnanomolar to low nanomolar range | did not increase biofilm growth |  | 
4 | I-N-(C-A-F-L-L) (INCAFLL; bridge 3-C; also: thiolactone between Cys3 side chain and C-terminus) [S. aureus AIP-III D4A, reference compound] | inactive |  | inhibiting exclusively Group-II |  | largely inactive |  |  | potent pan-group inhibitor |  |  |  | Inactive^c | Inactive^c

Source: US12662513B2, “Peptidic modulators of quorum sensing in Staphylococcus epidermidis” (priority 2016, dated 2026)
